What was measured:
Assay type in all cases: physicochemical
[1] = Investigation of the crystallinity by X-ray diffractometry; settings: salts suspended 7 days in a suitable solvent, filtered, dried at room temperature
Excerpt: In a second step, the salts were suspended for 7 days in a suitable solvent, filtered and dried at room temperature.
Processes: X-ray diffractometry (XRD); microscopy

[2] = Thermomicroscopy of WX-671.1
Experimental: Thermomicroscopic recordings of a sample of WX-671.1 were made (not shown). Agglomerates were observed which show no specific habit. The active compound decomposes with bubble formation from about 197° C. Differences to the decomposition temperature observed in the DSC calorimeter come about due to the different heating rates. WX-671.1 is obtained in nonspecific form from solvents.

[3] = DSC and TGA thermograms of WX-671.1 (hydrogensulfate salt)
Experimental: In this example, thermograms were plotted by differential scanning calorimetry (DSC) and thermo-gravimetry (TGA). […] It decomposes from about 180° C. (exothermic peak in the DSC thermogram, mass loss in the TGA thermogram in the corresponding temperature range). The decomposition temperatures are strongly heating rate-dependent and were determined in the DSC calorimeter at a heating rate of 2 Kmin^−1. The DSC table measurements shown were recorded at a heating rate of […] is correspondingly recorded at higher temperatures.

[4] = Polymorphism screening / stability of the solid form (stirring in solvents, mechanical stress)
[5] = Investigation of the hygroscopicity (storage at 85% relative humidity, TGA); settings: storage for 1 week/85% relative humidity

| Compound | XRD (crystallinity) [1] | decomposition with bubble formation, temperature [2] | decomposition temperature ([3]; mesophase B) | mass loss (TGA) ([3]; mesophase C, up to 175° C.) | mass loss (TGA) ([3]; modification A, at 150° C.) | change of form on stirring in water:ethanol (1:1) ([4]; mesophase B) | change of form due to mechanical stress ([4]; mesophase B, grinding in a mortar, compressing at 9 kbar) | change of form on stirring in isopropanol ([4]; mesophase B, room temperature, one week) | TGA (hygroscopicity) [5] | TGA, kind of water uptake [5] | thermodynamic stability of the form [4] |
| --- | --- | --- | --- | --- | --- | --- | --- | --- | --- | --- | --- |
| CCOC(=O)N1CCN(C(=O)[C@H](Cc2cccc(C(N)=NO)c2)NS(=O)(=O)c2c(C(C)C)cc(C(C)C)cc2C(C)C)CC1 [WX-671.1, N-α-(2,4,6-triisopropylphenylsulfonyl)-3-hydroxyamidino-(L)-phenylalanine 4-ethoxycarbonylpiperazide] | liquid crystalline | about 197 °C | about 185 °C | 4.5% | no significant mass loss | does not change | does not alter | changes into modification A | 0.8% | (adsorptive) |  |
| CCOC(=O)N1CCN(C(=O)[C@H](Cc2cccc(C(N)=NO)c2)NS(=O)(=O)c2c(C(C)C)cc(C(C)C)cc2C(C)C)CC1.O=S(=O)(O)O [WX-671.2, N-α-(2,4,6-triisopropylphenyl-sulfonyl)-3-hydroxyamidino-(L)-phenylalanine 4-ethoxy-carbonylpiperazide sulfate] |  |  |  |  |  |  |  |  |  |  | thermodynamically stable compound |
| Hydrochloride | completely amorphous |  |  |  |  |  |  |  | 7.5% | (adsorptive) |  |
| Tartrate | completely amorphous |  |  |  |  |  |  |  | 10.5% | (adsorptive) |  |
